Test results as given in US12559529B2, “NPY2 receptor agonists” (Boehringer Ingelheim International GmbH, priority 2019, dated 2026).

Target: T1, Human Neuropeptide Y2 Receptor (Homo sapiens, UniProt P49146)
T1 construct: purchased CHEMICON HTS066M
T1 sequence (P49146 1-381): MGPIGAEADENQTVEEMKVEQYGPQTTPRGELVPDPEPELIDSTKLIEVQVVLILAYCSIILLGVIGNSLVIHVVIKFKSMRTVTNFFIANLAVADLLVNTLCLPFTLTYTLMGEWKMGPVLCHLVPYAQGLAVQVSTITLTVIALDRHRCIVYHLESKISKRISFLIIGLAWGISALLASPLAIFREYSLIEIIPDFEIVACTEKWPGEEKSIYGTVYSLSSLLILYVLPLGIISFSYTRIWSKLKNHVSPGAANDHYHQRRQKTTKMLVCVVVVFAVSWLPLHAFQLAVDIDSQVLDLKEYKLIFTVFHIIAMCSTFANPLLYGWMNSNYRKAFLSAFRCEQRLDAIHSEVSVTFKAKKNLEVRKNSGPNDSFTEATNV
Experiment: Radioligand binding competition assay (RLB)
Details: Table 3; human 125I-PYY (1-36) 0.02 nM, Y2 receptor membranes; read-out: Ki
Method: The filtration RLB assay was carried out in 96-well plates in a final volume of 100 μl per well. Freeze-dried test peptides were dissolved in 100% dimethyl sulfoxide (DMSO) to stock solutions of 1 mM and serial dilutions were performed in assay buffer (50 mM HEPES, 5 mM MgCl2, 1 mM CaCl2), pH 7.4) containing 0.2% ovalbumin. […] Next, 80 μL membranes (HTS066M, ChemiSCREEN™ Human Neuropeptide Y2 Receptor Membrane Preparation, CHEMICON) were added to each well to give a final protein concentration of 0.5 μg/well. The plates were sealed and incubated at room temperature for 2 hours in a plate shaker set at 400 rpm. The incubation was stopped by vacuum filtration onto 0.5% poly-ethylene amine (PEI) presoaked GF/C filters using a 96-well FilterMate™ harvester (Perkin Elmer) followed by four washes with 300 μl/well ice-cold wash buffer (50 mM HEPES, 500 mM NaCl, pH7.4). Filter plates were then dried for 60 min at room temperature and the bottom of the plates was sealed with backing tape UniFilter-96. Finally, 50 μl/well scintillation counter cocktail (Microscint20, Packard) was added and the radioactivity was counted in the Packard TopCount NXT scintillation counter. IC50 values (the half maximal inhibitory concentration of the agonist) were calculated by nonlinear regression analysis of sigmoidal dose-response curves.

| SMILES | Ki [nM] |
| --- | --- |
| CC(C)CC(=O)N[C@@H](C)C(=O)N1CCC[C@H]1C(=O)N[C@@H](CCC(=O)O)C(=O)N[C@@H](CCCCNC(=O)COCCOCCNC(=O)COCCOCCNC(=O)CC[C@H](NC(=O)CCCCCCCCCCCCCCCCC(=O)O)C(=O)O)C(=O)N1CCC[C@H]1C(=O)N[C@@H](CCC(=O)O)C(=O)N[C@@H](CCC(=O)O)C(=O)N[C@@H](CC(=O)O)C(=O)N[C@@H](C)C(=O)N[C@@H](CO)C(=O)N1CCC[C@H]1C(=O)N[C@@H](CCC(=O)O)C(=O)N[C@@H](CCC(=O)O)C(=O)N[C@@H](CC(C)C)C(=O)N[C@@H](CCC(N)=O)C(=O)N[C@@H](CCCNC(=N)N)C(=O)N[C@@H](Cc1ccc(O)cc1)C(=O)N[C@@H](Cc1ccc(O)cc1)C(=O)N[C@H](C(=O)N[C@@H](CO)C(=O)N[C@@H](CC(C)C)C(=O)N[C@@H](CCCNC(=N)N)C(=O)N[C@@H](CCCCN)C(=O)N[C@@H](Cc1ccc(O)cc1)C(=O)N[C@@H](Cc1ccc(O)cc1)C(=O)N[C@@H](CC(N)=O)C(=O)N[C@@H](Cc1c[nH]c2ccccc12)C(=O)N[C@@H](CC(C)C)C(=O)N[C@H](C(=O)N[C@@H](CCCNC(=N)N)C(=O)N[C@@H](CCC(N)=O)C(=O)N[C@@H](CCCNC(=N)N)C(=O)N[C@@H](Cc1ccc(O)cc1)C(N)=O)[C@@H](C)O)C(C)C [Compound 24, N{alpha-4}-(3-methylbutanoyl)-N{epsilon-7}-[2-(2-{2-[2-(2-{2-[(4S)-4-carboxy-4-(17-carboxyheptadecanamido)butanamido]ethoxy}ethoxy)acetamido]ethoxy}ethoxy)acetamido]-[4A,7K,9E,18Q,22V,26K,28Y,30W,31L]hPYY (4-36)] | 2.22 |
| CC(C)CC(=O)N[C@@H](C)C(=O)N1CCC[C@H]1C(=O)N[C@@H](CCC(=O)O)C(=O)N[C@@H](CCCCNC(=O)COCCOCCNC(=O)COCCOCCNC(=O)CC[C@H](NC(=O)CCCCCCCCCCCCCCCCC(=O)O)C(=O)O)C(=O)N1CCC[C@H]1C(=O)N[C@@H](CCC(=O)O)C(=O)N[C@@H](CCC(=O)O)C(=O)N[C@@H](CCC(=O)O)C(=O)N[C@@H](C)C(=O)N[C@@H](CO)C(=O)N[C@@H](C)C(=O)N[C@@H](CCC(=O)O)C(=O)N[C@@H](CCC(=O)O)C(=O)N[C@@H](CC(C)C)C(=O)N[C@@H](CCC(N)=O)C(=O)N[C@@H](CCCNC(=N)N)C(=O)N[C@@H](Cc1ccc(O)cc1)C(=O)N[C@@H](Cc1ccc(O)cc1)C(=O)N[C@H](C(=O)N[C@@H](CO)C(=O)N[C@@H](CC(C)C)C(=O)N[C@@H](CCCNC(=N)N)C(=O)N[C@@H](Cc1c[nH]cn1)C(=O)N[C@@H](Cc1ccc(O)cc1)C(=O)N[C@@H](Cc1ccc(O)cc1)C(=O)N[C@@H](CC(N)=O)C(=O)N[C@@H](Cc1c[nH]c2ccccc12)C(=O)N[C@@H](CC(C)C)C(=O)N[C@H](C(=O)N[C@@H](CCCNC(=N)N)C(=O)N[C@@H](CCC(N)=O)C(=O)N[C@@H](CCCNC(=N)N)C(=O)N[C@@H](Cc1ccc(O)cc1)C(N)=O)[C@@H](C)O)C(C)C [Compound 25, N{alpha-4}-(3-methylbutanoyl)-N{epsilon-7}-[2-(2-{2-[2-(2-{2-[(4S)-4-carboxy-4-(17-carboxyheptadecanamido)butanamido]ethoxy}ethoxy)acetamido]ethoxy}ethoxy)acetamido]-[4A,7K,9E,11E,14A,18Q,22V,28Y,30W,31L]hPYY (4-36)] | 4.36 |
